The text below walks through data of US11149018B2, “Substituted N-arylethyl-2-aminoquinoline-4-carboxamides and use thereof” (Bayer Aktiengesellschaft, priority 2017, dated 2021).

For experiment [1], the system named is C57Bl6J mice with unilateral ureteral obstruction. Nature of the experiment: Unilateral ureteral obstruction (UUO) in mice (renal fibrosis). As to conditions: 10 days after UUO, mean ± SD, n=10; for SR/FG positive area [%]: SiriusRed/FastGreen collagen staining of kidney; for αSMA positive area [%]: immunohistochemistry of kidney; for Gene expression CTGF / Gene expression Col1α1 / Gene expression Col3α1 / Gene expression Col4α1 / Gene expression IL1-β / Gene expression IL-6 / Gene expression KC / Gene expression MCP-1 / Gene expression TGF-β / Gene expression αSMA: kidney, % of placebo group (=100%). Type of experiment: in vivo, mouse. An excerpt:
B-22. Animal Model of Unilateral Ureteral Obstruction (UUO) in Mice (Renal Fibrosis) Unilateral ureteral obstruction in mice and rats is a widely used animal model for interstitial renal fibrosis (Chevalier et al., Kidney Int. 2009, 75, 1145-1152). Permanent occlusion of the ureter leads, as a result of the sustained accumulation of the urine, to increased inflammatory cell infiltration into the interstitium, to tubular cell death and to irreversible loss of the renal parenchyma. After 5 to 7 days, owing to the elevated deposition of extracellular matrix proteins, interstitial fibrosis arises. Adult male […] mice (Charles River Laboratories, Sulzfeld, Germany) having a weight of 20-22 g were anaesthetized with isoflurane, then, after opening up the abdominal cavity, a ureter was ligated and severed beneath the ligature. In the sham-operated control mice (SHAM), the abdominal cavity was merely opened up, but the ureter was not ligated. […] 10 days after the UUO, the animals were anaesthetized and sacrificed by exsanguination. Thereafter, the kidneys were removed and renal fibrosis was assessed on the basis of the expression of pro-inflammatory and pro-fibrotic markers, and a histological assessment of the renal tissue.

Experiment [2] has as its system C57Bl6J mice with DQ12 silica-induced pulmonary fibrosis. Nature of the experiment: Silica-induced pulmonary fibrosis in mice, therapeutic chronic 30-day study. Format: in vivo, mouse. As to conditions: day 10-30, mean ± SEM. Here is the method: B-23. Silica-Induced Pulmonary Fibrosis in Mice: Therapeutic Chronic 30-Day Study with FP Antagonists
Adult female C57Bl6J mice (Charles River Laboratories, Sulzfeld, Germany) having a weight of 18-20 g were anaesthetized in a chamber with isoflurane (3% v/v) and treated intratracheally with 2.5 mg of crystalline DQ12 silica dissolved in 70 μL of sterile phosphate-buffered saline. Untreated control mice received the same volume of phosphate-buffered saline. […] 30 days after the installation of silica, the animals were anaesthetized with an intraperitoneal injection of ketamine/medetomidine (50 mg/kg and 0.33 mg/kg) combined with a subcutaneous injection of Temgesic (0.06 mg/kg) and sacrifice by exsanguination. Thereafter, the trachea was cannulated, and the animals' lungs were lavaged three times with 0.5 ml of ice-cold phosphate-buffered saline. Thereafter, the lungs were removed, weighed and shock-frozen in dry ice. […] The data are mean values±SEM of 8-12 animals per group. The statistical analysis was conducted with the unpaired Student's t test. P values<0.05 were considered to be significant.

Experiment [3] relates to C57BL/6J mice with CCl4-induced hepatic fibrosis. As to the kind of experiment: Carbon tetrachloride (CCl4)-induced hepatic fibrosis in mice. Format: in vivo, mouse. As for the experimental part:
B-21. Carbon Tetrachloride (CCl4)-Induced Hepatic Fibrosis in Mice
Sixty C57BL/6J mice (Charles River, male, 8 weeks old) were randomized and divided equally into 4 groups (15 mice per group). Group 1 served as the untreated healthy control group, whereas groups 2-4 served as mice suffering from hepatic fibrosis. Hepatic fibrosis was induced by intraperitoneal injection of 50 μl CCl4/olive oil suspension (CCl4+olive oil, 1+9 v/v) three times per week (Monday, Wednesday and Friday) over the entire study period. […] The CCl4-treated mice of group 4 served as group treated with a compound of the formula (I). The oral treatment of group 3 with the vehicle solution and of group 4 with a compound of the formula (I) started on day 1 and was continued twice daily (in the morning and evening) over the complete study period of two weeks. At the end of the study, all animals were sacrificed under anaesthetic, and the livers were removed fixed in 4% buffered formaldehyde solution for the subsequent histological processing and analysis. For this purpose, liver samples for all animals were embedded in paraffin and 3 μm-thick paraffin sections were produced. […] The sections were scanned with 20× enlargement and a light intensity of 4.8 V. The images thus produced were then converted to JPG format, and the red-stained area was quantified by means of ImageJ software (National Institute of Health, USA). […]

The subject of experiment [4] is occlusion of the cerebral artery. Conditions: treatment with the FP antagonist after occlusion of the cerebral artery; cited from earlier work.
The next experiment deals with FP receptor (Homo sapiens (Human), UniProt P43088). As to conditions: least selective of the prostanoid receptors; cited from earlier work.
Chain of FP receptor (P43088 whole entry): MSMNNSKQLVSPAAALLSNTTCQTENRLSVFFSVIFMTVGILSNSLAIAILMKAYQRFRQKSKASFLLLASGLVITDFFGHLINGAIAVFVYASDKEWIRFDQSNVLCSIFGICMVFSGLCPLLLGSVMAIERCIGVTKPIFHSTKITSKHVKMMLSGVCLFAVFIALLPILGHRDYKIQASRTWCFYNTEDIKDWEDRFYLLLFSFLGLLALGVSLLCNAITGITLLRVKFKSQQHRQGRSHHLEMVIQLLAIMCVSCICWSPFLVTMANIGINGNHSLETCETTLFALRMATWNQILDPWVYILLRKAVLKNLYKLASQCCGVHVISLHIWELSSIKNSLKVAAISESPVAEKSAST

Regarding `Cc1c(N2CCCC2)nc2ccc(Br)cc2c1C(=O)NCC(CCC(=O)O)c1ccccc1Cl.Cl` (single isomer, unassigned; (+)) [Example 284, (+)-5-({[6-Bromo-3-methyl-2-(pyrrolidin-1-yl)quinolin-4-yl]carbonyl}amino)-4-(2-chlorophenyl)pentanoic acid hydrochloride], in experiment [1] (30 mg/kg), the “SR/FG positive area [%]” value is given as 38.74 ± 9.12%, the “αSMA positive area [%]” value came to 25.19 ± 3.23%, the “Gene expression CTGF” value turned out to be 105.67 ± 52.33% and the “Gene expression Col1α1” value was determined as 76.70 ± 36.22%. In experiment [1] (30 mg/kg), the “Gene expression Col3α1” value worked out at 103.74 ± 37.60%, the “Gene expression Col4α1” value was found to be 71.15 ± 20.20%, the “Gene expression IL1-β” value turned out to be 81.91 ± 31.93% and the “Gene expression IL-6” value came to 207.04 ± 389.13%. Moreover, in experiment [1] (30 mg/kg), the “Gene expression KC” value came to 65.02 ± 15.98%, the “Gene expression MCP-1” value is given as 93.98 ± 26.32%, the “Gene expression TGF-β” value is recorded as 67.57 ± 32.67% and the “Gene expression αSMA” value is on record as 72.97 ± 39.94%. Also, in experiment [1] (60 mg/kg), the “SR/FG positive area [%]” value was determined as 34.66 ± 7.59%, the “αSMA positive area [%]” value turned out to be 22.28 ± 4.04%, the “Gene expression CTGF” value is recorded as 102.07 ± 26.99% and the “Gene expression Col1α1” value is reported as 38.90 ± 13.11%. Further, in experiment [1] (60 mg/kg), the “Gene expression Col3α1” value stood at 126.15 ± 46.51%, the “Gene expression Col4α1” value turned out to be 45.97 ± 8.44%, the “Gene expression IL1-β” value came out at 112.05 ± 71.38% and the “Gene expression IL-6” value amounted to 494.83 ± 850.76%. Besides, in experiment [1] (60 mg/kg), the “Gene expression KC” value came out at 50.69 ± 22.02%, the “Gene expression MCP-1” value came to 117.41 ± 38.15%, the “Gene expression TGF-β” value was determined as 31.79 ± 9.06% and the “Gene expression αSMA” value stood at 51.72 ± 21.33%. Also, the “Hydroxyproline [ng/lung]” value in experiment [2] (Silica + 10 mg/kg po bid) was 2341 ± 54.99 (n = 12) ng/lung. Further, the “Hydroxyproline [ng/lung]” value in experiment [2] (Silica + 30 mg/kg po bid) is on record as 2185 ± 86.79 (n = 12) ng/lung. Besides, in experiment [3] (2-week study in mice with hepatic fibrosis, p<0.01, two-way ANOVA with Dunnett post-hoc test), the “Progression of fibrosis (result in words)” value is “significant reduction in the progression of fibrosis”. Further, the “Sirius red [% liver area]” value in experiment [3] (CCl4 + 100 mg/kg, oral twice daily, 2 weeks, mean ± SD) is listed as 3.51 ± 0.65 % liver area.

Turning to `O=C(O)CCC/C=C\C[C@@H]1[C@@H](/C=C/[C@H](O)C2Cc3ccccc3C2)[C@@H](F)C[C@@H]1O` [AL-8810], the neuroprotective effect entry in experiment [4] was “significant neuroprotective effects”.

`CCCCC[C@H](O)/C=C/[C@H]1C(=O)C[C@H](O)[C@@H]1C/C=C\CCCC(=O)O` [PGD2, prostaglandin D2]: on FP receptor, the “binding affinity to the FP receptor” value is on record as “nanomolar affinities”.

As to `CCCCC[C@H](O)/C=C/[C@H]1[C@H](O)CC(=O)[C@@H]1C/C=C\CCCC(=O)O` [PGE2, prostaglandin E2], the “binding affinity to the FP receptor” value on FP receptor is given as “nanomolar affinities”.
